# In PMC5238392, “Origin of anti-tumor activity of the cysteine-containing GO peptides and further optimization of their cytotoxic properties” (Scientific Reports, 2017):
# Read-outs that look alike come from different tables or passages of the source.
# Tests used:
# HT-1080 cells [1] = assay: FITC Annexin V / propidium iodide apoptosis assay, HT-1080; assay type: cell-based, human; conditions: 10 μM
# Method: Already 2 h after administration of 10 μM dose, the system reaches a steady state with 18% of healthy cells, 17% of early apoptotic cells, and 58% of late apoptotic cells. It remains in this state for the entire period of observations, 24 h.
# Figure 3 GO-203-induced apoptosis in HT-1080 and ZR-75-1 cells as assessed by FITC Annexin V (AnV) and propidium iodide (PI) double staining. (A–D) Flow cytometry histograms for the cells incubated for 4 h with 10 μM of GO-203 and the untreated (control) cells. (E–H) Apoptotic fractions in the GO-203-treated and untreated (control) cells as a function of incubation time and GO-203 concentration; color coding is explained in the legend. TEXT PRINTED IN THE PICTURE: (B) GO-203: HT-1080: IV.(1.90 %); HT-1080: III.(52.62 %); HT-1080: I.(19.45 %); HT-1080: II.(26.04 %) | (D) GO-203: ZR-75-1: IV.(8.19 %); ZR-75-1: III.(8.65 %); ZR-75-1: I.(37.84 %); ZR-75-1: II.(45.32 %)
# The adherent cells were rinsed with PBS, harvested using trypsin-EDTA solution and suspended in the growth medium. To analyze cell cycle phase distribution, 200 μg/ml of saponin (Fluka, USA), 250 μg/ml RNase A, and 50 μg/ml of propidium iodide (both Sigma-Aldrich, USA) were added to each sample tube, thus obtaining DNA stain buffer. After 1 h incubation at room temperature, the samples were analyzed by flow cytometry. To detect apoptosis by flow cytometry, CellEvent Caspase-3/7 Green Flow Cytometry Assay Kit (Thermo Fisher Scientific, USA) and Annexin-V FITC conjugate (BD Biosciences, USA) in combination with propidium iodide have been employed following the manufacturer’s protocols.
# Cell fluorescence was measured using CytoFLEX (Beckman Coulter, USA) flow cytometer equipped with 3 lasers (405, 488 and 633 nm). Cells were gated on FSC/SSC to remove debris. Mean fluorescence intensity from 10,000 cells was acquired.
# [2] = tested on: primary culture of human dermal fibroblasts (DF); assay: MTS cell viability assay, dermal fibroblasts
# Method: As a next step, we used MTS assay[27] to examine the effect of GO peptides on the viability of the four described cell cultures as a function of different treatment schemes. […] This treatment regimen is labeled 4 × 5 underneath the graph. Alternatively, we introduced 5 μM of peptide daily while exchanging the medium (denoted 4/5). Unlike the previous protocol, it avoids potential build-up of the peptide in the medium.
# The treatment protocols are: 4 × 5 – four daily doses of 5 μM delivered without exchanging the growth medium; 4/5 – four daily doses of 5 μM delivered with exchanged growth medium; 1 × 5, 1 × 10, 1 × 15, and 1 × 20 – a single dose of 5, 10, 15, or 20 μM, respectively. MTS reagent was added to the wells 96 h after the first (and sometimes the only) application of the peptide and the optical density at 492 nm was measured to determine the fraction of the surviving cells.
# As a next step, we set out to test the cytotoxic effect of these peptides on the normal cells.
# Cell survival was measured using CellTiter 96 AQueous One Solution Cell Proliferation Assay (MTS test, Promega, USA). Cells have been seeded in a 96-well flat-bottom plate in 100 μl of culture medium (10^3 cells/well for A549, HT-1080, dermal fibroblasts and eMSC or 5 × 10^3 cells/well for ZR-75-1) and allowed to attach for 24 h. The starting amount of cells was chosen to account for their growth rate and degree of spreading such as to avoid excessive dilution in the beginning of the experiment or control cell overgrowth toward the end. After 24 h, 10 μl of peptide stock solution or PBS (control) were added to the wells. After 96 h, 20 μl of the MTS-reagent were added to each well and 1–2 h later optical density was measured at the wavelength 492 nm using the 96-well plate reader (Titertek Multiskan, Labsystems, Finland). All experiments were conducted in duplicate or triplicate.
# HT-1080 cells [3] = assay: H2DCFDA intracellular ROS measurement, HT-1080; assay type: cell-based, human; conditions: 5 μM, 30 min after application
# Method: Having established these premises, we repeated the measurements using the ROS-sensitive probe H2DCFDA instead of DCFDA. We have observed small, but statistically significant difference between the HT-1080 cells treated by GO-203 and control cells. Specifically, 30 min after application of the peptide the fluorescence signal from the treated cells was ca. 20% lower than the control, 82 ± 6 vs. 100 ± 7 (arbitrary units). The drop in fluorescence from cells that have been treated with GO-203 should be unequivocally attributed to the decreased level of ROS. The effect is small and unlikely to be the source of GO-203 cytotoxic activity. […] The detected drop in ROS level was below the level of statistical significance, 98 ± 3 vs. 100 ± 11 (see Fig. S3). […]
# The cells were seeded into 35-mm Nunc culture dishes (Thermo Scientific, USA) at 1.2 × 10^5 cells per dish and allowed to attach for 24 h. […] After that GO-203 was added directly to the suspension and cell fluorescence was measured by flow cytometry at multiple time points during the following 2 hours. […] Cell fluorescence was then immediately measured by flow cytometry. […]
# Cell fluorescence was measured using CytoFLEX (Beckman Coulter, USA) flow cytometer equipped with 3 lasers (405, 488 and 633 nm). […] Mean fluorescence intensity from 10,000 cells was acquired. […]
# [4] = tested on: human fibrosarcoma cell line HT-1080; assay type: cell-based; conditions: HT-1080
# [5] = 4 h, representative plot Fig. 3B
substance,measurement,setting,value
"[R]9CQCRRKN [GO-203, in clinical trials]",early apoptotic cells (Annexin V/PI),HT-1080 cells [1]; 2 h after administration,17%
same,late apoptotic cells (Annexin V/PI),HT-1080 cells [1]; 2 h after administration,58%
same,healthy cells (Annexin V/PI),HT-1080 cells [1]; 2 h after administration (steady state up to 24 h),18%
same,quadrant I fraction (Annexin V/PI dot plot),HT-1080 cells [1]; [5],19.45%
same,quadrant II fraction (Annexin V/PI dot plot),HT-1080 cells [1]; [5],26.04%
same,quadrant III fraction (Annexin V/PI dot plot),HT-1080 cells [1]; [5],52.62%
same,quadrant IV fraction (Annexin V/PI dot plot),HT-1080 cells [1]; [5],1.90%
same,Cell viability (MTS),"[2]; dermal fibroblasts, 1 × 5: single dose of 5 μM, 96 h",essentially inconsequential
same,Cell viability (MTS),"[2]; dermal fibroblasts, 4/5: four daily doses of 5 μM with exchanged growth medium, 96 h",inefficient
same,Cell viability (MTS),"[2]; dermal fibroblasts, 4 × 5: four daily doses of 5 μM without exchanging growth medium, OD 492 nm 96 h after first application",essentially complete cell death
same,Cell viability (MTS),"[2]; skin (dermal) fibroblasts, 1 × 10: single dose of 10 μM, 96 h",nearly wipes out
same,Decrease of H2DCFDA fluorescence signal versus control,HT-1080 cells [3],ca. 20%
same,H2DCFDA fluorescence signal (ROS level),"HT-1080 cells [3]; control 100 ± 7, mean and SD",82 ± 6 arbitrary units
same,Cell viability (MTS),"[4]; 1 × 5: single dose of 5 μM, 96 h",essentially inconsequential
same,Cell viability (MTS),"[4]; 1 × 10: single dose of 10 μM, 96 h",nearly wipes out
same,Cell viability (MTS),"[4]; 4/5: four daily doses of 5 μM with exchanged growth medium, 96 h",inefficient
same,Cell viability (MTS),"[4]; 4 × 5: four daily doses of 5 μM without exchanging growth medium, OD 492 nm 96 h after first application, duplicate or triplicate",essentially complete cell death
